Data as given in patent US10947188B2, “Small molecule ferroptosis inducers” (THE TRUSTEES OF COLUMBIA UNIVERSITY IN THE CITY OF NEW YORK, priority 2016, dated 2021).

Test system: BJeLR
Assay: Modulatory profiling: Alamar Blue viability, lethal compound cotreated with death modulator (EC50, AUC); on AUC, modulator BJ.3MA: reference of the scale not given here; on AUC, modulator BJ.ALLN: reference of the scale not given here; on AUC, modulator BJ.Boc D: reference of the scale not given here; on AUC, modulator BJ.CHX: reference of the scale not given here; on AUC, modulator BJ.Co2+: reference of the scale not given here; on AUC, modulator BJ.DPQ: reference of the scale not given here; on AUC, modulator BJ.Gd3+: reference of the scale not given here; on AUC, modulator BJ.LNAME: reference of the scale not given here; on AUC, modulator BJ.NAD+: reference of the scale not given here; on AUC, modulator BJ.NMMA: reference of the scale not given here; on AUC, modulator BJ.Nec-1: reference of the scale not given here; on AUC, modulator BJ.Pepstatin: reference of the scale not given here; on AUC, modulator BJ.TLCK: reference of the scale not given here
Type: cell-based, human
Set-up: AUC, modulator BJ.Gd3+ / AUC, modulator BJ.LNAME / AUC, modulator BJ.Lmin / AUC, modulator BJ.3MA / AUC, modulator BJ.ALLN / AUC, modulator BJ.Boc D / AUC, modulator BJ.CHX / AUC, modulator BJ.Co2+ / AUC, modulator BJ.Nec-1 / AUC, modulator BJ.Pepstatin / AUC, modulator BJ.TLCK / AUC, modulator BJ.atoc / AUC, modulator BJ.trolox / AUC, modulator BJ.zVAD: unit not given beside the values
Details: BJeLR cells, modulatory profile value (AUC); for AUC, modulator BJ.3MA: lethal compound cotreated with modulator 3MA; for AUC, modulator BJ.ALLN: lethal compound cotreated with modulator ALLN; for AUC, modulator BJ.Boc D: lethal compound cotreated with modulator Boc D; for AUC, modulator BJ.CHX: lethal compound cotreated with modulator CHX; for AUC, modulator BJ.Co2+: lethal compound cotreated with modulator Co2+; for AUC, modulator BJ.DPQ: lethal compound cotreated with modulator DPQ; for AUC, modulator BJ.Gd3+: lethal compound cotreated with modulator Gd3+; for AUC, modulator BJ.LNAME: lethal compound cotreated with modulator LNAME; for AUC, modulator BJ.Lmin/NAD+: lethal compound cotreated with modulator Lmin/NAD+; for AUC, modulator BJ.Lmin: lethal compound cotreated with modulator Lmin; for AUC, modulator BJ.NAD+: lethal compound cotreated with modulator NAD+; for AUC, modulator BJ.NMMA: lethal compound cotreated with modulator NMMA; for AUC, modulator BJ.Nec-1: lethal compound cotreated with modulator Nec-1; for AUC, modulator BJ.Pepstatin: lethal compound cotreated with modulator Pepstatin; for AUC, modulator BJ.TLCK: lethal compound cotreated with modulator TLCK; for AUC, modulator BJ.atoc: lethal compound cotreated with modulator atoc; for AUC, modulator BJ.trolox: lethal compound cotreated with modulator trolox; for AUC, modulator BJ.zVAD: lethal compound cotreated with modulator zVAD

| SMILES | AUC, modulator BJ.3MA | AUC, modulator BJ.ALLN | AUC, modulator BJ.Boc D | AUC, modulator BJ.CHX | AUC, modulator BJ.Co2+ | AUC, modulator BJ.DPQ | AUC, modulator BJ.Gd3+ | AUC, modulator BJ.LNAME | AUC, modulator BJ.Lmin/NAD+ | AUC, modulator BJ.Lmin | AUC, modulator BJ.NAD+ | AUC, modulator BJ.NMMA | AUC, modulator BJ.Nec-1 | AUC, modulator BJ.Pepstatin | AUC, modulator BJ.TLCK | AUC, modulator BJ.atoc | AUC, modulator BJ.trolox | AUC, modulator BJ.zVAD |
| --- | --- | --- | --- | --- | --- | --- | --- | --- | --- | --- | --- | --- | --- | --- | --- | --- | --- | --- |
| CC(C)C[C@H](NC(=O)[C@H](Cc1ccccc1)NC(=O)c1cnccn1)B(O)O [Bortezomib] | 0.001928 | −0.1031 | 0.03032 | 0.2984 | 0.2379 | −0.007392 | −0.03227 | −0.008649 | 0.1491 | 0.09993 | 0.05175 | −0.0002968 | 0.002293 | 0.000698 | 0.07108 | 0.01647 | 0.01237 | 0.005086 |
| CC1=CC(C)(C)Nc2ccc(OC(=O)c3ccco3)cc21 [CIL2] | 0.06431 | −0.03978 | −0.03808 | 0.03999 | −0.1362 | 0.003929 | 0.01322 | −0.004423 | −0.01944 | 0.008318 | 0.03383 | −0.005234 | 0.0318 | 0.05923 | 0.06974 | −0.01149 | 0.001657 | −0.003959 |
| CC1CC(C)(C)Nc2ccc(OC(=O)c3ccco3)cc21 (stereo not drawn) [CIL4] | 0.08316 | −0.003083 | −0.01828 | −0.009993 | −0.1747 | −0.003969 | 0.05533 | −0.01288 | 0.08674 | −0.002867 | 0.02731 | −0.01566 | 0.1015 | 0.08231 | 0.06929 | 0.004307 | 0.008406 | 0.01242 |
| CN(C)CC(O)Cn1c2ccc(Cl)cc2c2cc(Cl)ccc21 (stereo not drawn) [CIL5] | 0.08524 | −0.1163 | −0.07609 | −0.0324 | 0.04705 | 0.002876 | 0.01146 | −0.009787 | −0.01738 | −0.03698 | 2.99E−05 | −0.0271 | 0.03195 | 0.06042 | −0.02603 | −0.00271 | 0.0183 | −0.02054 |
| OCCNCC(O)Cn1c2ccc(Br)cc2c2cc(Br)ccc21 (stereo not drawn) [CIL7] | 0.09188 | −0.02876 | −0.04946 | −0.01056 | 0.09999 | 0.06721 | −0.01897 | −0.03182 | 0.01771 | 0.01256 | 0.009046 | −0.01533 | 0.02534 | 0.06231 | −0.02373 | 0.0008495 | 0.0424 | −0.05834 |
| CC(C)(C)C1CCc2c(sc(NC(=O)CN3CCNCC3)c2C(N)=O)C1 (stereo not drawn) [CIL10] | 0.134 | −0.01713 | −0.05212 | −0.01805 | 0.1142 | −0.02695 | 0.007922 | 0.01363 | −0.01396 | −0.02341 | −0.001182 | 0.006192 | 0.07272 | 0.001044 | −0.05831 | 0.0467 | 0.05527 | −0.007333 |
| O=C1C(Cl)=C(N2CCOCC2)C(=O)C(Cl)=C1N1CCOCC1 [CIL11] | 0.09004 | 0.01538 | −0.04323 | 0.1239 | 0.07771 | −0.01566 | 0.02905 | −0.0003217 | 0.01344 | −0.04034 | −0.03919 | −0.00378 | 0.02974 | 0.04125 | −0.01155 | −0.02082 | −0.01782 | −0.004517 |
| Cc1cccnc1Nc1nc(-c2ccccn2)cs1 [CIL13] | 0.09083 | −0.03933 | −0.02989 | −0.1264 | 0.5287 | 0.007392 | 0.04263 | 0.01544 | −0.05456 | −0.03412 | 0.01378 | −0.03177 | 0.04738 | 0.03784 | 0.3412 | −0.005646 | −0.006649 | −0.004568 |
| CCCS(=O)(=O)c1nnnn1-c1cccc(OC)c1 [CIL15] | 0.02761 | −0.06757 | −0.05321 | 0.1287 | 0.0961 | −0.01238 | 0.02535 | −0.02453 | −0.01164 | −0.0004619 | 0.01287 | −0.03623 | 0.02391 | 0.0256 | −0.005629 | −0.01149 | −0.01026 | 0.01243 |
| C[S+]([O-])c1nc(-c2ccc(Br)cc2)cc(-c2ccccc2)c1C#N (stereo not drawn) [CIL17] | 0.07927 | −0.07478 | −0.03116 | −0.0462 | −0.04764 | 0.004679 | −0.04 | −0.008054 | −0.03209 | −0.02464 | −0.01632 | −0.01688 | 0.02959 | 0.03912 | −0.07864 | 0.006451 | −0.001174 | −0.02313 |
